# Molecular target: T1, recombinant human FLAP protein (Homo sapiens, UniProt P20292)
# T1 construct: made in house; host or cells: Sf9 insect cells (100,000 x g membrane pellet)
# T1 sequence (P20292 1-161): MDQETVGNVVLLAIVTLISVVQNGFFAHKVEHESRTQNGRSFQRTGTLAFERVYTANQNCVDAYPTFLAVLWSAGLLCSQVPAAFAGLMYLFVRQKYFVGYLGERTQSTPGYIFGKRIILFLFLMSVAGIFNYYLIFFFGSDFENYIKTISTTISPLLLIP
# Assay: FLAP binding assay, Scintillation Proximity Assay, displacement of [125I]L-691,831
# Conditions: read-out: hFLAP binding IC50
# Description: Compounds are assessed for the ability to bind to FLAP in a binding assay that measures compound-specific displacement of an iodinated (^1251) FLAP inhibitor via a Scintillation Proximity Assay format (adapted from S. Charleson et al., Mol. Pharmacol., 1992, 41, 873-879).
# Cell pellets produced from sf9 insect cells expressing recombinant human FLAP protein are resuspended in buffer A [15 mM Tris-HCl (pH 7.5), 2 mM MgCl2, 0.3 mM EDTA, 1 mM PMSF]. The cells are lysed with a Dounce homogenizer and the material is centrifuged at 10,000×g for 10 minutes. The supernatant is then collected and centrifuged at 100,000×g for 60 minutes. To prepare membrane protein for an assay, an aliquot of the 100,000×g pellet is resuspended in 1 ml of buffer A, Dounce homogenized, and finally subjected to polytron mixing (30 seconds). Membrane protein (25 μl, 5 μg) is mixed with WGA SPA beads (Amersham) and stirred for 1 h. To an assay plate (Perkin Elmer FlexiPlate) is added 25 μl of test compound prepared in Binding buffer [100 mM Tris (pH 7.5), 140 mM NaCl, 5% glycerol, 2 mM EDTA, 0.5 mM TCEP, 0.05% Tween 20], 25 μl of [^125I]L-691,831 (an iodinated analog of MK-591, Charleson et al. Mol. Pharmacol., 41, 873-879, 1992) and finally 50 μl of the bead/protein mixture. (final concentrations: beads, 200 μg/well; protein, 5 μg/well; [^125I] probe, 0 08 nM/well (17 nCi/well). The plates are shaken for 2 h before reading on a Microbeta plate reader. Non-specific binding is determined by the addition of 10 μM cold L-691,831 compound.
row,IC50 [nM],SMILES
1,1,"COc1ccc(C(=O)c2c(CC(C(=O)O)C(C)C)c(C(=O)C(C)(C)C)c3cc(OCc4nc5ccccc5s4)ccn23)cc1 (centres unmarked) [2-({7-(1,3-benzothiazol-2-ylmethoxy)-1-(2,2-dimethylpropanoyl)-3-[(4-methoxyphenyl)carbonyl]indolizin-2-yl}methyl)-3-methylbutanoic acid]"
2,44,"CC(C)(C)C(=O)c1c(CC(C)(C)C(=O)O)c(C(=O)c2ccc(Cl)cc2)n2ccc(OCc3ccccn3)cc12 [3-{3-[(4-chlorophenyl)carbonyl]-1-(2,2-dimethylpropanoyl)-7-(pyridin-2-ylmethoxy)indolizin-2-yl}-2,2-dimethylpropanoic acid]"
3,165,"CC(C)c1ccn2c(C(=O)c3ccc(-c4cccnc4)cc3)c(CC(C)(C)C(=O)O)c(C(=O)C(C)(C)C)c2c1 [3-[1-(2,2-dimethylpropanoyl)-7-(propan-2-yl)-3-{[4-(pyridin-3-yl)phenyl]carbonyl}indolizin-2-yl]-2,2-dimethylpropanoic acid]"
4,64,"CC(C)(C)C(=O)c1c(CC(C)(C)C(=O)O)c(C(=O)c2ccc(Cl)cc2)n2ccc(OCc3ncccn3)cc12 [3-{3-[(4-chlorophenyl)carbonyl]-1-(2,2-dimethylpropanoyl)-7-(pyrimidin-2-ylmethoxy)indolizin-2-yl}-2,2-dimethylpropanoic acid]"
5,118,"CC(C)(C)C(=O)c1c(CC(C)(C)C(=O)O)c(C(=O)c2ccc(Cl)cc2)n2ccc(OCc3cscn3)cc12 [3-{3-[(4-chlorophenyl)carbonyl]-1-(2,2-dimethylpropanoyl)-7-(1,3-thiazol-4-ylmethoxy)indolizin-2-yl}-2,2-dimethylpropanoic acid]"
6,8,"Cc1cccc(COc2ccc3c(C(=O)c4ccc(Cl)cc4)c(CC(C)(C)C(=O)O)c(C(=O)C(C)(C)C)n3c2)n1 [3-{1-[(4-chlorophenyl)carbonyl]-3-(2,2-dimethylpropanoyl)-6-[(6-methylpyridin-2-yl)methoxy]indolizin-2-yl}-2,2-dimethylpropanoic acid]"
7,7,"CCCC(Cc1c(C(=O)C(C)(C)C)c2cc(OCc3csc(C)n3)ccn2c1C(=O)c1ccc(OC)cc1)C(=O)O (centres unmarked) [2-({1-(2,2-dimethylpropanoyl)-3-[(4-methoxyphenyl)carbonyl]-7-[(2-methyl-1,3-thiazol-4-yl)methoxy]indolizin-2-yl}methyl)pentanoic acid]"
8,1,"Cc1csc(COc2ccn3c(C(=O)c4ccc(Cl)c(Cl)c4)c(CC(C)(C)C(=O)O)c(C(=O)C(C)(C)C)c3c2)n1 [3-{3-[(3,4-dichlorophenyl)carbonyl]-1-(2,2-dimethylpropanoyl)-7-[(4-methyl-1,3-thiazol-2-yl)methoxy]indolizin-2-yl}-2,2-dimethylpropanoic acid]"
9,1,"COc1ccc(C(=O)c2c(CC(C)(C)C(=O)O)c(C(=O)C(C)(C)C)c3cc(OCc4ccc5ccccc5n4)ccn23)cc1 [3-[1-(2,2-dimethylpropanoyl)-3-[(4-methoxyphenyl)carbonyl]-7-(quinolin-2-ylmethoxy)indolizin-2-yl]-2,2-dimethylpropanoic acid]"
10,4,CC(C)(C)C(=O)c1c(CC(C)(C)C(=O)O)c(C(=O)c2ccc(Cl)cc2)n2ccc(OCc3nc4ccccc4s3)cc12
11,14,CC(C)(C)C(=O)c1c(CC(C)(C)C(=O)O)c(C(=O)c2ccc(Cl)cc2)c2ccc(OCc3ccc4ccccc4n3)cn12
12,99,"CC(C)(C)C(=O)c1c(CC(C)(C)C(=O)O)c(C(=O)c2ccc(Br)cc2)n2ccc(OCc3ccccn3)cc12 [3-{3-[(4-bromophenyl)carbonyl]-1-(2,2-dimethylpropanoyl)-7-(pyridin-2-ylmethoxy)indolizin-2-yl}-2,2-dimethylpropanoic acid]"
13,316,"CC(C)c1ccn2c(C(=O)c3ccc(C(F)(F)F)cc3)c(CC(C)(C)C(=O)O)c(C(=O)C(C)(C)C)c2c1 [3-[1-(2,2-dimethylpropanoyl)-7-(propan-2-yl)-3-{[4-(trifluoromethyl)phenyl]carbonyl}indolizin-2-yl]-2,2-dimethylpropanoic acid]"
14,85,"CC(C)(C)CC(=O)c1c(CC(C)(C)C(=O)O)c(C(=O)c2ccc(Cl)cc2)n2ccc(OCc3ccc4ccccc4n3)cc12 [3-{3-[(4-chlorophenyl)carbonyl]-1-(3,3-dimethylbutanoyl)-7-(quinolin-2-ylmethoxy)indolizin-2-yl}-2,2-dimethylpropanoic acid]"
15,8,"COc1ccnc(COc2ccn3c(C(=O)c4ccc(Cl)cc4)c(CC(C)(C)C(=O)O)c(C(=O)C(C)(C)C)c3c2)c1 [3-{3-[(4-chlorophenyl)carbonyl]-1-(2,2-dimethylpropanoyl)-7-[(4-methoxypyridin-2-yl)methoxy]indolizin-2-yl}-2,2-dimethylpropanoic acid]"
16,2,"CCC(C)(Cc1c(C(=O)C(C)(C)C)c2cc(OCc3cccc(C)n3)ccn2c1C(=O)c1ccc(OC)cc1)C(=O)O (centres unmarked) [2-({1-(2,2-dimethylpropanoyl)-3-[(4-methoxyphenyl)carbonyl]-7-[(6-methylpyridin-2-yl)methoxy]indolizin-2-yl}methyl)-2-methylbutanoic acid]"
17,69,"COc1nc(COc2ccn3c(C(=O)c4ccc(Cl)cc4)c(CC(C)(C)C(=O)O)c(C(=O)C(C)(C)C)c3c2)cs1 [3-{3-[(4-chlorophenyl)carbonyl]-1-(2,2-dimethylpropanoyl)-7-[(2-methoxy-1,3-thiazol-4-yl)methoxy]indolizin-2-yl}-2,2-dimethylpropanoic acid]"
18,1,"COc1ccc(C(=O)c2c(CC(C(=O)O)C(C)C)c(C(=O)C(C)(C)C)c3cc(OCc4ccc5ccccc5n4)ccn23)cc1 (centres unmarked) [2-{[1-(2,2-dimethylpropanoyl)-3-[(4-methoxyphenyl)carbonyl]-7-(quinolin-2-ylmethoxy)indolizin-2-yl]methyl}-3-methylbutanoic acid]"
19,1,"Cc1nc(COc2ccn3c(C(=O)c4cc(Cl)cc(Cl)c4)c(CC(C)(C)C(=O)O)c(C(=O)C(C)(C)C)c3c2)cs1 [3-{3-[(3,5-dichlorophenyl)carbonyl]-1-(2,2-dimethylpropanoyl)-7-[(2-methyl-1,3-thiazol-4-yl)methoxy]indolizin-2-yl}-2,2-dimethylpropanoic acid]"
20,25,"CC(C)(C)C(=O)c1c(CC(C)(C)C(=O)O)c(C(=O)c2ccc(Cl)cc2)n2ccc(OCc3nccs3)cc12 [3-{3-[(4-chlorophenyl)carbonyl]-1-(2,2-dimethylpropanoyl)-7-(1,3-thiazol-2-ylmethoxy)indolizin-2-yl}-2,2-dimethylpropanoic acid]"
21,13,"COc1ccc(C(=O)c2c(CC(C(=O)O)C(C)C)c(C(=O)C(C)(C)C)c3cc(OCc4csc(C)n4)ccn23)cc1 (centres unmarked) [2-({1-(2,2-dimethylpropanoyl)-3-[(4-methoxyphenyl)carbonyl]-7-[(2-methyl-1,3-thiazol-4-yl)methoxy]indolizin-2-yl}methyl)-3-methylbutanoic acid]"
22,4,"COc1ccc(C(=O)c2c(CC(C(=O)O)C(C)C)c(C(=O)C(C)(C)C)c3cc(OCc4nc(C)cs4)ccn23)cc1 (centres unmarked) [2-({1-(2,2-dimethylpropanoyl)-3-[(4-methoxyphenyl)carbonyl]-7-[(4-methyl-1,3-thiazol-2-yl)methoxy]indolizin-2-yl}methyl)-3-methylbutanoic acid]"
23,22,"COc1cncc(-c2ccc(C(=O)c3c(CC(C)(C)C(=O)O)c(C(=O)C(C)(C)C)c4cc(OCc5ccccn5)ccn34)cc2)c1 [3-[1-(2,2-dimethylpropanoyl)-3-{[4-(5-methoxypyridin-3-yl)phenyl]carbonyl}-7-(pyridin-2-ylmethoxy)indolizin-2-yl]-2,2-dimethylpropanoic acid]"
24,7,"COc1ccc(C(=O)c2c(C[C@@H](C(=O)O)C(C)C)c(C(=O)C(C)(C)C)c3cc(OCc4csc(C)n4)ccn23)cc1 [(2R)-2-({1-(2,2-dimethylpropanoyl)-3-[(4-methoxyphenyl)carbonyl]-7-[(2-methyl-1,3-thiazol-4-yl)methoxy]indolizin-2-yl}methyl)-3-methylbutanoic acid]"
25,3,"Cc1ccc(C(=O)c2c(CC(C)(C)C(=O)O)c(C(=O)C(C)(C)C)c3cc(OCc4cccc(C)n4)ccn23)cc1 [3-{1-(2,2-dimethylpropanoyl)-3-[(4-methylphenyl)carbonyl]-7-[(6-methylpyridin-2-yl)methoxy]indolizin-2-yl}-2,2-dimethylpropanoic acid]"
26,2,"CCC(C)(Cc1c(C(=O)C(C)(C)C)c2cc(OCc3csc(C)n3)ccn2c1C(=O)c1ccc(OC)cc1)C(=O)O (centres unmarked) [2-({1-(2,2-dimethylpropanoyl)-3-[(4-methoxyphenyl)carbonyl]-7-[(2-methyl-1,3-thiazol-4-yl)methoxy]indolizin-2-yl}methyl)-2-methylbutanoic acid]"

# — patent publication US8618300B2, “Indolizine inhibitors of leukotriene production” (Boehringer Ingelheim International GmbH, priority 2008, dated 2013)
